# Measured values from patent publication US11319299B2, “Substituted carboxamides as inhibitors of WDR5 protein-protein binding” (PROPELLON THERAPEUTICS INC., priority 2016, dated 2022).
# pKd: −log10 of the molar value.
# Biological target: WDR5 (Homo sapiens (Human), UniProt P61964)
# Assay: Surface Plasmon Resonance (SPR) assay, KD and residence time
# Format: binding
# Details: surface plasmon resonance (SPR); read-out: WDR5 binding affinity (KD)
row,pKd,SMILES
1,7.81,"CN(CC1CC1)[C@@H]1CCN(c2cc(F)c(-c3cnc(N4CCOCC4)nc3)cc2NC(=O)c2c[nH]c(=O)cc2C(F)(F)F)C1 [Example 586, N-[4-fluoro-5-(2-morpholin-4-ylpyrimidin-5-yl)-2-[(3R)-3-[cyclopropylmethyl(methyl)amino]pyrrolidin-1-yl]phenyl]-6-oxo-4-(trifluoromethyl)-1H-pyridine-3-carboxamide]"
2,6.60,"CN(CC1CC1)[C@@H]1CCN(c2cc(F)c(-c3cnc(N4CCOCC4)nc3)cc2NC(=O)c2cn(C)c(=O)cc2C(F)(F)F)C1 [Example 587, N-[4-fluoro-5-(2-morpholin-4-ylpyrimidin-5-yl)-2-[(3R)-3-[cyclopropylmethyl(methyl)amino]pyrrolidin-1-yl]phenyl]-1-methyl-6-oxo-4-(trifluoromethyl)pyridine-3-carboxamide]"
3,8.76,"C[C@@H]1CN(c2cc(F)c(C3=CCN(c4ncc(C#N)cn4)C3)cc2NC(=O)c2c[nH]c(=O)cc2C(F)(F)F)C[C@H](C)N1C [Example 588, N-[5-[1-(5-cyanopyrimidin-2-yl)-2,5-dihydropyrrol-3-yl]-4-fluoro-2-[(3R,5S)-3,4,5-trimethylpiperazin-1-yl]phenyl]-6-oxo-4-(trifluoromethyl)-1H-pyridine-3-carboxamide]"
4,8.13,"C[C@@H]1CN(c2cc(F)c(-c3ccc(F)c(C(N)=O)c3)cc2NC(=O)c2cn(C)c(=O)cc2C(F)(F)F)C[C@H](C)N1C [Example 589, N-[5-(3-carbamoyl-4-fluorophenyl)-4-fluoro-2-[(3R,5S)-3,4,5-trimethylpiperazin-1-yl]phenyl]-1-methyl-6-oxo-4-(trifluoromethyl)pyridine-3-carboxamide]"
5,8.48,"C[C@@H]1CN(c2cc(F)c(-c3ccc(C(N)=O)c(F)c3)cc2NC(=O)c2cn(C)c(=O)cc2C(F)(F)F)C[C@H](C)N1C [Example 590, N-[5-(4-carbamoyl-3-fluorophenyl)-4-fluoro-2-[(3R,5S)-3,4,5-trimethylpiperazin-1-yl]phenyl]-1-methyl-6-oxo-4-(trifluoromethyl)pyridine-3-carboxamide]"
6,7.81,"C[C@@H]1CN(c2cc(F)c(-c3ccc(F)c(C(N)=O)c3)cc2NC(=O)c2cn(C)c(=O)cc2C(F)F)C[C@H](C)N1C [Example 591, N-[5-(3-carbamoyl-4-fluorophenyl)-4-fluoro-2-[(3R,5S)-3,4,5-trimethylpiperazin-1-yl]phenyl]-4-(difluoromethyl)-1-methyl-6-oxopyridine-3-carboxamide]"
7,8.17,"C[C@@H]1CN(c2cc(F)c(-c3ccc(C(N)=O)c(F)c3)cc2NC(=O)c2cn(C)c(=O)cc2C(F)F)C[C@H](C)N1C [Example 592, N-[5-(4-carbamoyl-3-fluorophenyl)-4-fluoro-2-[(3R,5S)-3,4,5-trimethylpiperazin-1-yl]phenyl]-4-(difluoromethyl)-1-methyl-6-oxopyridine-3-carboxamide]"
8,9.57,"CC(C)OC(=O)N1CCC=C(c2cc(NC(=O)c3c[nH]c(=O)cc3C(F)(F)F)c(N3C[C@@H](C)N(C)[C@@H](C)C3)cc2F)C1 [Example 601, propan-2-yl 5-[2-fluoro-5-[[6-oxo-4-(trifluoromethyl)-1H-pyridine-3-carbonyl]amino]-4-[(3R,5S)-3,4,5-trimethylpiperazin-1-yl]phenyl]-3,6-dihydro-2H-pyridine-1-carboxylate]"
9,9.32,"CC(C)OC(=O)N1CC=C(c2cc(NC(=O)c3c[nH]c(=O)cc3C(F)(F)F)c(N3C[C@@H](C)N(C)[C@@H](C)C3)cc2F)CC1 [Example 602, propan-2-yl 4-[2-fluoro-5-[[6-oxo-4-(trifluoromethyl)-1H-pyridine-3-carbonyl]amino]-4-[(3R,5S)-3,4,5-trimethylpiperazin-1-yl]phenyl]-3,6-dihydro-2H-pyridine-1-carboxylate]"
10,8.96,"CNC(=O)c1ccc(-c2cc(NC(=O)c3c[nH]c(=O)cc3C(F)(F)F)c(N3C[C@@H](C)N(C)[C@@H](C)C3)cc2F)cc1F [Example 603, N-[4-fluoro-5-[3-fluoro-4-(methylcarbamoyl)phenyl]-2-[(3R,5S)-3,4,5-trimethylpiperazin-1-yl]phenyl]-6-oxo-4-(trifluoromethyl)-1H-pyridine-3-carboxamide]"
11,8.77,"CNC(=O)c1cc(-c2cc(NC(=O)c3c[nH]c(=O)cc3C(F)(F)F)c(N3C[C@@H](C)N(C)[C@@H](C)C3)cc2F)ccc1F [Example 604, N-[4-fluoro-5-[4-fluoro-3-(methylcarbamoyl)phenyl]-2-[(3R,5S)-3,4,5-trimethylpiperazin-1-yl]phenyl]-6-oxo-4-(trifluoromethyl)-1H-pyridine-3-carboxamide]"
12,9.22,"CNC(=O)c1ccc(-c2cc(NC(=O)c3c[nH]c(=O)cc3C(F)F)c(N3C[C@@H](C)N(C)[C@@H](C)C3)cc2F)cc1F [Example 605, 4-(difluoromethyl)-N-[4-fluoro-5-[3-fluoro-4-(methylcarbamoyl)phenyl]-2-[(3R,5S)-3,4,5-trimethylpiperazin-1-yl]phenyl]-6-oxo-1H-pyridine-3-carboxamide]"
13,8.73,"CNC(=O)c1cc(-c2cc(NC(=O)c3c[nH]c(=O)cc3C(F)F)c(N3C[C@@H](C)N(C)[C@@H](C)C3)cc2F)ccc1F [Example 606, 4-(difluoromethyl)-N-[4-fluoro-5-[4-fluoro-3-(methylcarbamoyl)phenyl]-2-[(3R,5S)-3,4,5-trimethylpiperazin-1-yl]phenyl]-6-oxo-1H-pyridine-3-carboxamide]"
14,8.71,"C[C@@H]1CN(c2cc(F)c(C3=CCN(C(=O)N4CCCC4)C3)cc2NC(=O)c2c[nH]c(=O)cc2C(F)F)C[C@H](C)N1C [Example 612, 4-(Difluoromethyl)-N-(4-fluoro-5-(1-(pyrrolidine-1-carbonyl)-2,5-dihydro-1H-pyrrol-3-yl)-2-((3S,5R)-3,4,5-trimethylpiperazin-1-yl)phenyl)-6-oxo-1,6-dihydropyridine-3-carboxamide]"
15,9.43,"C[C@@H]1CN(c2cc(F)c(C3=CCCN(c4ncc(C#N)s4)C3)cc2NC(=O)c2c[nH]c(=O)cc2C(F)(F)F)C[C@H](C)N1C [Example 615, N-[5-[1-(5-cyano-1,3-thiazol-2-yl)-3,6-dihydro-2H-pyridin-5-yl]-4-fluoro-2-[(3R,5S)-3,4,5-trimethylpiperazin-1-yl]phenyl]-6-oxo-4-(trifluoromethyl)-1H-pyridine-3-carboxamide]"
16,9.13,"C[C@@H]1CN(c2cc(F)c(-c3csc(N4CCOCC4)n3)cc2NC(=O)c2c[nH]c(=O)cc2C(F)(F)F)C[C@H](C)N1C [Example 616, N-[4-fluoro-5-(2-morpholin-4-yl-1,3-thiazol-4-yl)-2-[(3R,5S)-3,4,5-trimethylpiperazin-1-yl]phenyl]-6-oxo-4-(trifluoromethyl)-1H-pyridine-3-carboxamide]"
17,9.02,"C[C@@H]1CN(c2cc(F)c(-c3cnc(N4CCOCC4)s3)cc2NC(=O)c2c[nH]c(=O)cc2C(F)(F)F)C[C@H](C)N1C [Example 619, N-[4-fluoro-5-(2-morpholin-4-yl-1,3-thiazol-5-yl)-2-[(3R,5S)-3,4,5-trimethylpiperazin-1-yl]phenyl]-6-oxo-4-(trifluoromethyl)-1H-pyridine-3-carboxamide]"
18,8.29,"C[C@@H]1CN(c2cc(F)c(-c3csc(N4CCOCC4)n3)cc2NC(=O)c2cn(C)c(=O)cc2C(F)F)C[C@H](C)N1C [Example 622, 4-(difluoromethyl)-N-[4-fluoro-5-(2-morpholin-4-yl-1,3-thiazol-4-yl)-2-[(3R,5S)-3,4,5-trimethylpiperazin-1-yl]phenyl]-1-methyl-6-oxopyridine-3-carboxamide]"
19,8.25,"C[C@@H]1CN(c2cc(F)c(-c3cnc(N4CCOCC4)s3)cc2NC(=O)c2cn(C)c(=O)cc2C(F)F)C[C@H](C)N1C [Example 623, 4-(difluoromethyl)-N-[4-fluoro-5-(2-morpholin-4-yl-1,3-thiazol-5-yl)-2-[(3R,5S)-3,4,5-trimethylpiperazin-1-yl]phenyl]-1-methyl-6-oxopyridine-3-carboxamide]"
20,8.28,"C[C@@H]1CN(c2cc(F)c(-c3cc(C(=O)NC(C)(C)CC(C)(C)C)c(F)cc3F)cc2NC(=O)c2c[nH]c(=O)cc2C(F)(F)F)C[C@H](C)N1C [Example 626, N-[5-[2,4-difluoro-5-(2,4,4-trimethylpentan-2-ylcarbamoyl)phenyl]-4-fluoro-2-[(3R,5S)-3,4,5-trimethylpiperazin-1-yl]phenyl]-6-oxo-4-(trifluoromethyl)-1H-pyridine-3-carboxamide]"
21,7.63,"C[C@@H]1CN(c2cc(F)c(-c3cc(C(=O)NC(C)(C)CC(C)(C)C)c(F)cc3F)cc2NC(=O)c2c[nH]c(=O)cc2C(F)F)C[C@H](C)N1C [Example 627, 4-(difluoromethyl)-N-[5-[2,4-difluoro-5-(2,4,4-trimethylpentan-2-ylcarbamoyl)phenyl]-4-fluoro-2-[(3R,5S)-3,4,5-trimethylpiperazin-1-yl]phenyl]-6-oxo-1H-pyridine-3-carboxamide]"
22,8.65,"C[C@H]1CN(c2cc(F)c(C3=CCN(C(=O)N4CCCC4)C3)cc2NC(=O)c2c[nH]c(=O)cc2C(F)F)CCN1C [Example 629, (S)-4-(Sifluoromethyl)-N-(2-(3,4-dimethylpiperazin-1-yl)-4-fluoro-5-(1-(pyrrolidine-1-carbonyl)-2,5-dihydro-1H-pyrrol-3-yl)phenyl)-6-oxo-1,6-dihydropyridine-3-carboxamide]"
23,8.70,"C[C@@H]1CN(c2cc(F)c(C3=CCN(C(=O)OC4(C)CCC4)C3)cc2NC(=O)c2c[nH]c(=O)cc2C(F)F)C[C@H](C)N1C [Example 630, 1-Methylcyclobutyl 3-(5-(4-(difluoromethyl)-6-oxo-1,6-dihydropyridine-3-carboxamido)-2-fluoro-4-((3S,5R)-3,4,5-trimethylpiperazin-1-yl)phenyl)-2,5-dihydro-1H-pyrrole-1-carboxylate]"
24,8.58,"C[C@H]1CN(c2cc(F)c(C3=CCN(C(=O)OC4(C)CCC4)C3)cc2NC(=O)c2c[nH]c(=O)cc2C(F)F)CCN1C [Example 631, 1-Methylcyclobutyl (S)-3-(5-(4-(difluoromethyl)-6-oxo-1,6-dihydropyridine-3-carboxamido)-4-(3,4-dimethylpiperazin-1-yl)-2-fluorophenyl)-2,5-dihydro-1H-pyrrole-1-carboxylate]"
